Patent US20080292736A1, “Bioavailability enhancing activity of carum carvi extracts and fractions thereof” (COUNCIL OF SCIENTIFIC AND INDUSTRIAL RESEARCH, priority 2001, published 2008)
Where two headings read alike, the source gives them in different places.

What was measured:
[1] = rat, in vivo; for % Enhancement in bioavailability, BE from Zingiber officinale: 35 mg/kg
Description: (§1) Bioenhancers of Zingiber officinale, mean 50% alcoholic extract of fresh ginger. The doses remain unchanged whether the bioenhancers are used alone or in combination.
(§2) The amount of bioenhancers used are given below: • i. from Carum carvi: extract 30 mg/kg body weight (rats); Fraction No. 1: 15 mg/kg body weight (rats) • ii. piperine 8 mg/kg body weight (rats) • iii. Zingiber officinale: 35 mg/kg body weight (rats) • The drug used was rifampicin (40 mg/kg). The drug alone or in combination with the bioenhancers was administered to rats as given below: • Group 1: control • Group 2: Rifampicin alone • Group 3: bioenhancer alone • Group 4: Rifampicin with Carum carvi bioenhancer
(§3) Blood from the control/treated animals at predetermined intervals (0-24 hours) (total 14 timings). Rifampicin was extracted from the blood (plasma) using dichloromethane. […] The mobile phase was phosphate buffer:acetonitrile in a ratio of 40:60, and a flow rate of 1.0 ml/min.

[2] = Enhancement of bioavailability of drugs given to rats with bioenhancers (plasma drug level by HPLC); settings: for % Enhancement in bioavailability, BE from Carum carvi: drug with Carum carvi bioenhancer (aqueous or 50% alcoholic extract 30 mg/kg or Fraction No. 1 15 mg/kg), drug dose mg/kg; for % Enhancement in bioavailability, Carum carvi + Zingiber officinale: drug with Carum carvi bioenhancer and Zingiber officinale 35 mg/kg; for % Enhancement in bioavailability, Carum carvi + Zingiber officinale / % Enhancement in bioavailability, Carum carvi + Piperine / % Enhancement in bioavailability, BE from Zingiber officinale / % Enhancement in bioavailability, Piperine as BE: drug dose as in row; for % Enhancement in bioavailability, Carum carvi + Piperine: drug with Carum carvi bioenhancer and piperine 8 mg/kg; for % Enhancement in bioavailability, BE from Zingiber officinale: drug with Zingiber officinale 50% alcoholic extract of fresh ginger 35 mg/kg; for % Enhancement in bioavailability, Piperine as BE: drug with piperine 8 mg/kg; for % Enhancement in bioavailability, Carum carvi (Cc) Frac 1.: nutraceutical with Carum carvi Fraction No. 1 15 mg/kg; for % Enhancement in bioavailability, Carum carvi + Zingiber officinale, Frac 1. (Cc): nutraceutical with Carum carvi Fraction No. 1 and Zingiber officinale; for % Enhancement in bioavailability, Carum carvi + piperine, Frac 1. (Cc): nutraceutical with Carum carvi Fraction No. 1 and piperine; for % Enhancement in bioavailability, Carum carvi (Cc) Extr.: nutraceutical with Carum carvi extract 30 mg/kg; for % Enhancement in bioavailability, Carum carvi + Zingiber officinale, Extr. (Cc): nutraceutical with Carum carvi extract and Zingiber officinale; for % Enhancement in bioavailability, Carum carvi + piperine, Extr. (Cc): nutraceutical with Carum carvi extract and piperine
Description: as §1, §2, §3

| Compound | % Enhancement in bioavailability, BE from Carum carvi [1] | % Enhancement in bioavailability, Carum carvi + Piperine [1] | % Enhancement in bioavailability, Carum carvi + Zingiber officinale [1] | % Enhancement in bioavailability, BE from Zingiber officinale [1] | % Enhancement in bioavailability, BE from Carum carvi [2] | % Enhancement in bioavailability, Carum carvi + Zingiber officinale [2] | % Enhancement in bioavailability, Carum carvi + Piperine [2] | % Enhancement in bioavailability, BE from Zingiber officinale [2] | % Enhancement in bioavailability, Piperine as BE [2] | other results |
| --- | --- | --- | --- | --- | --- | --- | --- | --- | --- | --- |
| O=C(O)Cc1ccccc1Nc1c(Cl)cccc1Cl [Diclofenac] | Nil | 100% | 95% | 90% |  |  |  |  |  |  |
| CC[C@H]1OC(=O)[C@H](C)[C@@H](O[C@H]2C[C@@](C)(OC)[C@@H](O)[C@H](C)O2)[C@H](C)[C@@H](O[C@@H]2O[C@H](C)C[C@H](N(C)C)[C@H]2O)[C@](C)(O)C[C@@H](C)C(=O)[C@H](C)[C@@H](O)[C@]1(C)O [Erythromycin] | 70% | 100% | 105% | 68% |  |  |  |  |  |  |
| CCn1cc(C(=O)O)c(=O)c2cc(F)c(N3CCNCC3)cc21 [Norfloxacin] | 55% | 65% | 60% | Nil |  |  |  |  |  |  |
| CNC(=C[N+](=O)[O-])NCCSCc1ccc(CN(C)C)o1 [Ranitidine] | 67% | 70% | 150% | 147% |  |  |  |  |  |  |
| CC[C@H]1OC(=O)[C@H](C)[C@@H](O[C@H]2C[C@@](C)(OC)[C@@H](O)[C@H](C)O2)[C@H](C)[C@@H](O[C@@H]2O[C@H](C)C[C@H](N(C)C)[C@H]2O)[C@](C)(O)C[C@@H](C)/C(=N\OCOCCOC)[C@H](C)[C@@H](O)[C@]1(C)O [Roxythromycin] | 65% | 95% | 98% | 72% |  |  |  |  |  |  |
| CC[C@H](C)[C@H](N)C(=O)O [Isoleucine] |  |  |  | 15% |  |  |  |  |  | % Enhancement in bioavailability, Carum carvi + Zingiber officinale, Extr. (Cc) [1]: 42%; % Enhancement in bioavailability, Carum carvi + Zingiber officinale, Frac 1. (Cc) [1]: 50%; % Enhancement in bioavailability, Carum carvi + piperine, Extr. (Cc) [1]: 37%; % Enhancement in bioavailability, Carum carvi + piperine, Frac 1. (Cc) [1]: 44%; % Enhancement in bioavailability, Carum carvi (Cc) Extr. ([1]; 30 mg/kg): 28% |
| Cc1onc(-c2ccccc2Cl)c1C(=O)N[C@@H]1C(=O)N2[C@@H]1SC(C)(C)[C@@H]2C(=O)O [Cloxacillin] | 110% | 95% | 110% | 76% |  |  |  |  |  |  |
| Cc1nnc2n1-c1ccc(Cl)cc1C(c1ccccc1)=NC2 [Alprazolam] |  |  |  |  | Nil | 80% | 70% | 76% | 65% |  |
| C=CC1=C(C(=O)O)N2C(=O)[C@@H](NC(=O)/C(=N\O)c3csc(N)n3)[C@H]2SC1 [Cefidinir] |  |  |  |  | 89% | 130% | 95% | 35% | 60% |  |
| Cc1cn([C@H]2C[C@H](N=[N+]=[N-])[C@@H](CO)O2)c(=O)[nH]c1=O [Zidovudine] |  |  |  |  | 92% | 87% | 95% | 105% | 140% |  |
| Nc1ccc(S(=O)(=O)c2ccc(N)cc2)cc1 [Dapsone] |  |  |  |  | 56% | 68% | 67% | 46% | 34% |  |
| CN(Cc1cc(Br)cc(Br)c1N)C1CCCCC1 [Bromhexine] |  |  |  |  | Nil | 71% | 70% | 67% | 67% |  |
| Cn1c(=O)c2[nH]cnc2n(C)c1=O [Theophylline] |  |  |  |  | 70% | 89% | 79% | 76% | 65% |  |
| CCc1cc(C(N)=S)ccn1 [Ethionamide] |  |  |  |  | 68% | 70% | 65% | 56% | 45% |  |
| Vit B 12 |  |  |  |  |  |  |  | Nil | Nil | % Enhancement in bioavailability, Carum carvi (Cc) Frac 1. [2]: nil; % Enhancement in bioavailability, Carum carvi + Zingiber officinale, Frac 1. (Cc) [2]: Nil; % Enhancement in bioavailability, Carum carvi + piperine, Frac 1. (Cc) [2]: Nil; % Enhancement in bioavailability, Carum carvi (Cc) Extr. [2]: Nil; % Enhancement in bioavailability, Carum carvi + Zingiber officinale, Extr. (Cc) [2]: Nil; % Enhancement in bioavailability, Carum carvi + piperine, Extr. (Cc) [2]: Nil |
| C[C@@H]1[C@H](O)[C@@H](C)/C=C/C=C/C=C/C=C/C=C/C=C/C=C/[C@H](O[C@@H]2O[C@H](C)[C@@H](O)[C@H](N)[C@@H]2O)C[C@@H]2O[C@](O)(C[C@@H](O)C[C@@H](O)[C@H](O)CC[C@@H](O)C[C@@H](O)CC(=O)O[C@H]1C)C[C@H](O)[C@H]2C(=O)O [Amphotericin B] |  |  |  |  | 78% | 80% | 90% | Nil | nil |  |
| Vit E |  |  |  |  |  |  |  | Nil | Nil | % Enhancement in bioavailability, Carum carvi (Cc) Frac 1. [2]: Nil; % Enhancement in bioavailability, Carum carvi + Zingiber officinale, Frac 1. (Cc) [2]: Nil; % Enhancement in bioavailability, Carum carvi + piperine, Frac 1. (Cc) [2]: Nil; % Enhancement in bioavailability, Carum carvi (Cc) Extr. [2]: Nil; % Enhancement in bioavailability, Carum carvi + Zingiber officinale, Extr. (Cc) [2]: Nil; % Enhancement in bioavailability, Carum carvi + piperine, Extr. (Cc) [2]: Nil |
